Measurements: patent US10287301B2 (Achillion Pharmaceuticals, Inc., priority 2015, dated 2019)

The compounds below were run against Human Factor D (Homo sapiens (Human), UniProt P00746) (assay: Human Factor D Assay). Details: Human Factor D assay of Example 8; Table 2; read-out: IC50.
Human Factor D, sequence (P00746 26-253): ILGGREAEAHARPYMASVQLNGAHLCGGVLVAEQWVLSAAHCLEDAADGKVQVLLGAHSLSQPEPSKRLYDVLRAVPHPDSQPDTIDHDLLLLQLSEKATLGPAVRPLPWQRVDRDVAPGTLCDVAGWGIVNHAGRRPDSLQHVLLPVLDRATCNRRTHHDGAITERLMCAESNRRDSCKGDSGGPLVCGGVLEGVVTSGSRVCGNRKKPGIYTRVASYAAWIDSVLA
Assay type: biochemical
Procedure, shortened: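 Factor D (from human serum) 80 nM final + cpd, 5 min RT, 50 mM Tris/1M NaCl pH 7.5; add Z-L-Lys-SBzl 100 μM and DTNB 100 μM final. IC50 by nonlinear fit of rates vs [cpd].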
With CC(=O)c1nn(CC(=O)N2CC[C@@H](O)[C@H]2C(=O)Nc2cccc(Br)n2)c2ccc(-c3cnc(C)nc3)cc12 [Compound 315, (2S,3R)-1-(2-(3-acetyl-5-(2-methylpyrimidin-5-yl)-1H-indazol-1-yl)acetyl)-N-(6-bromopyridin-2-yl)-3-hydroxypyrrolidine-2-carboxamide] the IC50 was less than 1000 nM. COCCOCCOCCOCCOCCOc1ncc(-c2ccc3c(c2)c(C(C)=O)nn3CC(=O)N2C[C@H](F)C[C@H]2C(=O)Nc2cccc(Br)n2)cn1 [Compound 316] showed an IC50 of less than 1000 nM. For CC(=O)c1nn(CC(=O)N2C[C@H](F)C[C@H]2C(=O)Nc2cncc(Br)n2)c2ccc(-c3cnc(C)nc3)cc12 [Compound 317, (2S,4R)-1-(2-(3-acetyl-5-(2-methylpyrimidin-5-yl)-1H-indazol-1-yl)acetyl)-N-(6-bromopyrazin-2-yl)-4-fluoropyrrolidine-2-carboxamide], the IC50 was less than 1000 nM. With COc1cc2c(cc1-c1cnc(C)nc1)c(C(C)=O)cn2CC(=O)N1C[C@H](F)C[C@H]1C(=O)Nc1cccc(-c2ccccc2Cl)c1F [Compound 318, (2S,4R)-1-(2-(3-Acetyl-6-methoxy-5-(2-methylpyrimidin-5-yl)-1H-indol-1-yl)acetyl)-N-(2′-chloro-2-fluoro-[1,1′-biphenyl]-3-yl)-4-fluoropyrrolidine-2-carboxamide] the IC50 was less than 1000 nM. In the case of COc1cc2c(cc1-c1cnc(C)nc1)c(C(C)=O)cn2CC(=O)N1C[C@H](F)C[C@H]1C(=O)Nc1cccc(Br)n1 [Compound 319, (2S,4R)-1-(2-(3-Acetyl-6-methoxy-5-(2-methylpyrimidin-5-yl)-1H-indol-1-yl)acetyl)-N-(6-bromopyridin-2-yl)-4-fluoropyrrolidine-2-carboxamide], the IC50 is reported as less than 1000 nM. CC(=O)c1cn(CC(=O)N2C[C@H](F)C[C@H]2C(=O)Nc2cccc(-c3ccccc3Cl)c2F)c2cc(O)c(-c3cnc(C)nc3)cc12 [Compound 320, (4R)-1-(2-(3-Acetyl-6-hydroxy-5-(2-methylpyrimidin-5-yl)-1H-indol-1-yl)acetyl)-N-(2′-chloro-2-fluoro-[1,1′-biphenyl]-3-yl)-4-fluoropyrrolidine-2-carboxamide] was tested, and the IC50 was less than 1000 nM. CC(=O)c1nn(CC(=O)N2C[C@H](F)C[C@H]2C(=O)Nc2cccc(Br)n2)c2ccc(-c3cnc4nc(C)ccn34)cc12 [Compound 321, (2S,4R)-1-(2-(3-acetyl-5-(7-methylimidazo[1,2-a]pyrimidin-3-yl)-1H-indazol-1-yl)acetyl)-N-(6-bromopyridin-2-yl)-4-fluoropyrrolidine-2-carboxamide] was tested, and the IC50 was less than 1000 nM. Compound CC(=O)c1nn(CC(=O)N2C[C@H](F)C[C@H]2C(=O)Nc2cncc(Br)n2)c2ccc(-c3cnc4ccnn4c3)cc12 [Compound 322, (2S,4R)-1-(2-(3-acetyl-5-(pyrazolo[1,5-a]pyrimidin-6-yl)-1H-indazol-1-yl)acetyl)-N-(6-bromopyrazin-2-yl)-4-fluoropyrrolidine-2-carboxamide] has an IC50 of less than 1000 nM. CC(=O)c1cn(CC(=O)N2C[C@H](F)C[C@H]2C(=O)Nc2cncc(Br)n2)c2ccc(-c3cnc4ccnn4c3)cc12 [Compound 323, (2S,4R)-1-(2-(3-acetyl-5-(pyrazolo[1,5-a]pyrimidin-6-yl)-1H-indol-1-yl)acetyl)-N-(6-bromopyrazin-2-yl)-4-fluoropyrrolidine-2-carboxamide] gave an IC50 of less than 1000 nM. Compound CC(=O)c1nn(CC(=O)N2[C@@H]3C[C@@H]3C[C@H]2C(=O)Nc2cncc(Br)n2)c2ccc(-c3cnc4cc(C)nn4c3)cc12 [Compound 324, (1R,3S,5R)-2-(2-(3-acetyl-5-(2-methylpyrazolo[1,5-a]pyrimidin-6-yl)-1H-indazol-1-yl)acetyl)-N-(6-bromopyrazin-2-yl)-2-azabicyclo[3.1.0] hexane-3-carboxamide] has an IC50 of less than 1000 nM. CC(=O)c1nn(CC(=O)N2C[C@H](F)C[C@H]2C(=O)Nc2cncc(Br)n2)c2ccc(-c3ccc4nc(C)nn4c3)cc12 [Compound 325, (2S,4R)-1-(2-(3-acetyl-5-(2-methyl-[1,2,4]triazolo[1,5-a]pyridin-6-yl)-1H-indazol-1-yl)acetyl)-N-(6-bromopyrazin-2-yl)-4-fluoropyrrolidine-2-carboxamide] gave an IC50 of less than 1000 nM. For CC(=O)c1nn(CC(=O)N2C[C@H](F)C[C@H]2C(=O)Nc2cccc(-c3sccc3Cl)c2F)c2ccc(-c3cnc(C)nc3)cc12 [Compound 327, (2S,4R)-1-(2-(3-acetyl-5-(2-methylpyrimidin-5-yl)-1H-indazol-1-yl)acetyl)-N-(3-(3-chlorothiophen-2-yl)-2-fluorophenyl)-4-fluoropyrrolidine-2-carboxamide], the IC50 was less than 1000 nM. In the case of CC(=O)c1cn(CC(=O)N2C[C@H](F)C[C@H]2C(=O)Nc2cccc(Br)n2)c2cc(O)c(-c3cnc(C)nc3)cc12 [Compound 328, (4R)-1-(2-(3-Acetyl-6-hydroxy-5-(2-methylpyrimidin-5-yl)-1H-indol-1-yl)acetyl)-N-(6-bromopyridin-2-yl)-4-fluoropyrrolidine-2-carboxamide], the IC50 is reported as less than 1000 nM. In the case of CC(=O)c1nn(CC(=O)N2CSC(C)(C)[C@H]2C(=O)NCc2cccc(Cl)c2F)c2ccc(-c3cnc(C)nc3)cc12 [Compound 329, (R)-3-(2-(3-acetyl-5-(2-methylpyrimidin-5-yl)-1H-indazol-1-yl)acetyl)-N-(3-chloro-2-fluorobenzyl)-5,5-dimethylthiazolidine-4-carboxamide], the IC50 is reported as 1000 to 10000 nM. CC(=O)c1nn(CC(=O)N2C[C@H](F)C[C@H]2C(=O)Nc2cccc(OC(F)(F)F)n2)c2ccc(-c3cnc4cc(C)nn4c3)cc12 [Compound 330, (2S,4R)-1-(2-(3-acetyl-5-(2-methylpyrazolo[1,5-a]pyrimidin-6-yl)-1H-indazol-1-yl)acetyl)-4-fluoro-N-(6-(trifluoromethoxy)pyridin-2-yl)pyrrolidine-2-carboxamide] gave an IC50 of less than 1000 nM. Compound CC(=O)c1cn(CC(=O)N2[C@@H]3C[C@@H]3C[C@H]2C(=O)Nc2cncc(Br)n2)c2ccc(-c3cnc4cc(C)nn4c3)cc12 [Compound 331, (1R,3S,5R)-2-(2-(3-acetyl-5-(2-methylpyrazolo[1,5-a]pyrimidin-6-yl)-1H-indol-1-yl)acetyl)-N-(6-bromopyrazin-2-yl)-2-azabicyclo[3.1.0] hexane-3-carboxamide] has an IC50 of less than 1000 nM. Work on CC(=O)c1nn(CC(=O)N2C[C@H](F)C[C@H]2C(=O)Nc2cc(C)cc(Br)n2)c2ccc(-c3cnc4cc(C)nn4c3)cc12 [Compound 332, (2S,4R)-1-(2-(3-acetyl-5-(2-methylpyrazolo[1,5-a]pyrimidin-6-yl)-1H-indazol-1-yl)acetyl)-N-(6-bromo-4-methylpyridin-2-yl)-4-fluoropyrrolidine-2-carboxamide] yielded an IC50 of less than 1000 nM.

Same assay, conditions: Table 3; Human Factor D 80 nM, substrate Z-L-Lys-SBzl; read-out: IC50 (Stars)
Compound CC(=O)c1cn(CC(=O)N2C[C@H](F)C[C@H]2C(=O)Nc2cccc(-c3ccccc3Cl)c2F)c2ccc(-c3cnc(O[C@@H]4CO[C@H]5[C@@H]4OC[C@H]5O)nc3)cc12 [Compound 333, (2S,4R)-1-(2-(3-acetyl-5-(2-(((3R,3aR,6R,6aR)-6-hydroxyhexahydrofuro [3,2-b]furan-3-yl)oxy)pyrimidin-5-yl)-1H-indol-1-yl)acetyl)-N-(2′-chloro-2-fluoro-[1,1′-biphenyl]-3-yl)-4-fluoropyrrolidine-2-carboxamide] has an IC50 of less than 1000 nM. Work on CC(=O)c1cn(CC(=O)N2C[C@H](F)C[C@H]2C(=O)Nc2cccc(Br)n2)c2ccc(-c3cnc(O[C@@H]4CO[C@H]5[C@@H]4OC[C@H]5O)nc3)cc12 [Compound 334, (2S,4R)-1-(2-(3-acetyl-5-(2-(((3R,3aR,6R,6aR)-6-hydroxyhexahydrofuro [3,2-b]furan-3-yl)oxy)pyrimidin-5-yl)-1H-indol-1-yl)acetyl)-N-(6-bromopyridin-2-yl)-4-fluoropyrrolidine-2-carboxamide] yielded an IC50 of less than 1000 nM. CO[C@@H]1CO[C@H]2[C@@H]1OC[C@H]2Oc1ncc(-c2ccc3c(c2)c(C(C)=O)cn3CC(=O)N2C[C@H](F)C[C@H]2C(=O)Nc2cccc(-c3ccccc3Cl)c2F)cn1 [Compound 335] showed an IC50 of less than 1000 nM. For CO[C@@H]1CO[C@H]2[C@@H]1OC[C@H]2Oc1ncc(-c2ccc3c(c2)c(C(C)=O)cn3CC(=O)N2C[C@H](F)C[C@H]2C(=O)Nc2cccc(Br)n2)cn1 [Compound 337, (2S,4R)-1-(2-(3-acetyl-5-(2-(((3R,3aR,6R,6aR)-6-methoxyhexahydrofuro [3,2-b]furan-3-yl)oxy)pyrimidin-5-yl)-1H-indol-1-yl)acetyl)-N-(6-bromopyridin-2-yl)-4-fluoropyrrolidine-2-carboxamide], the IC50 was less than 1000 nM. With Cc1ncc(-c2ccc3c(c2)c(CC(N)=O)nn3CC(=O)N2C[C@H](F)C[C@H]2C(=O)Nc2cccc(Br)n2)cn1 [Compound 340, (2S,4R)-1-(2-(3-(2-amino-2-oxoethyl)-5-(2-methylpyrimidin-5-yl)-1H-indazol-1-yl)acetyl)-N-(6-bromopyridin-2-yl)-4-fluoropyrrolidine-2-carboxamide] the IC50 was 1000 to 10000 nM. CC(=O)c1nn(CC(=O)N2C[C@H](F)C[C@H]2C(=O)Nc2cccc(-c3cc(S(N)(=O)=O)ccc3Cl)c2F)c2ccc(-c3cnc(C)nc3)cc12 [Compound 341, (2S,4R)-1-(2-(3-Acetyl-5-(2-methylpyrimidin-5-yl)-1H-indazol-1-yl)acetyl)-N-(2′-chloro-2-fluoro-5′-sulfamoyl-[1,1′-biphenyl]-3-yl)-4-fluoropyrrolidine-2-carboxamide] was tested, and the IC50 was less than 1000 nM. Work on CNS(=O)(=O)c1ccc(Cl)c(-c2cccc(NC(=O)[C@@H]3C[C@@H](F)CN3C(=O)Cn3nc(C(C)=O)c4cc(-c5cnc(C)nc5)ccc43)c2F)c1 [Compound 342, (2S,4R)-1-(2-(3-Acetyl-5-(2-methylpyrimidin-5-yl)-1H-indazol-1-yl)acetyl)-N-(2′-chloro-2-fluoro-5′-(N-methylsulfamoyl)-[1,1′-biphenyl]-3-yl)-4-fluoropyrrolidine-2-carboxamide] yielded an IC50 of less than 1000 nM.
